Literature values as cited in patent US20230110028A1, “OXYBATE POLYETHYLENE GLYCOL PRODRUGS” (Tris Pharma, Inc., priority 2021, published 2023).

How the values were obtained:
[1] = not given; remark: listed apart in the source
[2] = forms gamma-butyrolactone (GBL) at pH below 7
[3] = in vivo

| Molecule | Solubility [mg/mL] | other results |
| --- | --- | --- |
| Sulfobutyl ether-β-cyclodextrin | ≥500 | – |
| Hydroxypropyl-β-cyclodextrin | ≥600 | – |
| Randomly methylated-β-cyclodextrin | ≥500 | – |
| O=C(O)CCCO [Sodium oxybate] | – | solubility in aqueous solutions [1]: very soluble; stability in acidic medium [2]: unstable |
| O=C(O)CCCO [oxybate, gamma hydroxybutyrate] | – | elimination half-life [3]: 30 to 40 min |
